Measured values taken from US7863285B2, “Purinone derivatives as HM74A agonists” (Incyte Corporation, priority 2006, dated 2011).

Columns and labels:
mature adipocytes = test: Adipocyte lipolysis assay; type: cell-based; conditions: glycerol in supernatants after overnight culture with IBMX (100 μM)
Procedure: Preadipocytes purchased from Zen Bio were plated at 8.7×10^4 cells/well in 96-well plates, differentiated for 14 days and mature adipocytes assayed during days 15 through 21. Adipocyte maturation is assessed by the presence of rounded cells with large lipid droplets in the cytoplasm. Following maturation, cells were washed and incubated overnight with IBMX (100 μM) and various concentrations of compound diluted in assay buffer containing a final DMSO concentration of 0.1%. After overnight culture, the glycerol concentration in the supernatants was determined with the Lipolysis Assay Kit purchased from Zen-Bio. Absorbance at 540 nm is directly proportional to the glycerol concentration in the sample. IC50 determinations were based on compound inhibition relative to DMSO controls. […] For example, the compound of Example 1 has an IC50 of 100 nM in this assay.

human HM74a [1] = biological target: T1, human HM74a (Homo sapiens, UniProt Q8TDS4); test: cAMP assay; type: cell-based; design: expressed in transfected cells; conditions: CHO cells stably transfected with human HM74a; 5 μM forskolin; inhibition relative to DMSO controls
Procedure: CHO cells stably transfected with human HM74a were seeded at 7,500 cells/well in a 96-well plate in HAMS F12 medium with 10% FBS. The plate was incubated overnight at 37° C. and 5% CO2. The test compounds were prepared in a stimulation buffer containing 1×HANKS, 20 mM HEPES, 5 μM forskolin, and 0.25 mM IBMX. The media from the cell plate was removed before adding 30 μL of the test compounds. After 30 minute incubation at 37° C. and 5% CO2, the cAMP level was assayed using HitHunter cAMP XS assay kit (DiscoverX, CA). IC50 determinations were based on compound inhibition relative to DMSO controls.
Target sequence in this assay (Q8TDS4 whole entry): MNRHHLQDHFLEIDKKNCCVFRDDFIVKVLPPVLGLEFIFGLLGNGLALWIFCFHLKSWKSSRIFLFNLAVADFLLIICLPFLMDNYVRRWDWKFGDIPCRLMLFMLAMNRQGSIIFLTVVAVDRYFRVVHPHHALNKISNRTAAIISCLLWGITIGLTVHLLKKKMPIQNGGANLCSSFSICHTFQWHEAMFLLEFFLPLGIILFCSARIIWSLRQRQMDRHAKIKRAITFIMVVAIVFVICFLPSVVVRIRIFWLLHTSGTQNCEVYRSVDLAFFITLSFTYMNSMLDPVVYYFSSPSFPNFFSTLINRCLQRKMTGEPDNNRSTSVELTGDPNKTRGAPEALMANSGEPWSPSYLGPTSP

human HM74a [2] = biological target: T1, human HM74a; test: GTPγS recruitment assay; type: biochemical; design: expressed in transfected cells; host or cells: HEK293 cells, transient transfection, membrane preparation; conditions: membranes of HEK293 cells transfected with human HM74a and Gα0; 35S GTPγS
Procedure: Membranes were prepared from HEK293 cells transiently transfected with human HM74a and Gα0 protein. Assays were performed in 384-well format in a volume of 50 μL per assay point. Serial dilutions of compounds were prepared in the assay buffer (20 mM HEPES pH. 7.4, 100 mM NaCl, 10 mM MgCl2, 10 mg/L saponin and 10 μM GDP) and mixed with membranes (2 μg per assay point) and ^35S GTPγS (Amersham, 0.3 nM) in the assay buffer. The mixtures were incubated at room temperature for 30 min and wheat germ agglutinin SPA beads (Amersham) (0.2 mg per assay point) in the assay buffer were added. After 30 min incubation with agitation, plates were centrifuged at 1500 g for 5 min and bound ^35S GTPγS was determined by counting on a TopCount scintillation counter.
Target sequence in this assay (Q8TDS4 whole entry): as above
Target sequence in this assay (P09471 2-354 partner limits assumed): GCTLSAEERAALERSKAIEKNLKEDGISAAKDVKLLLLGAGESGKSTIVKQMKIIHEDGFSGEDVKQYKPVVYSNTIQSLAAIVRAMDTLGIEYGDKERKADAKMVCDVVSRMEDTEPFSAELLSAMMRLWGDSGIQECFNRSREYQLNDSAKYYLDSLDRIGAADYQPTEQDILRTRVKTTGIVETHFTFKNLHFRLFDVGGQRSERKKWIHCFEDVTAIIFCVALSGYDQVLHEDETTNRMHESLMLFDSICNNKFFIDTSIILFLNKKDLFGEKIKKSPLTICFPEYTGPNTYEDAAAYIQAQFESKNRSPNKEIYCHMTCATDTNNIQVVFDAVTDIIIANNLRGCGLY
Target sequence in this assay (P62873 2-340 partner limits assumed): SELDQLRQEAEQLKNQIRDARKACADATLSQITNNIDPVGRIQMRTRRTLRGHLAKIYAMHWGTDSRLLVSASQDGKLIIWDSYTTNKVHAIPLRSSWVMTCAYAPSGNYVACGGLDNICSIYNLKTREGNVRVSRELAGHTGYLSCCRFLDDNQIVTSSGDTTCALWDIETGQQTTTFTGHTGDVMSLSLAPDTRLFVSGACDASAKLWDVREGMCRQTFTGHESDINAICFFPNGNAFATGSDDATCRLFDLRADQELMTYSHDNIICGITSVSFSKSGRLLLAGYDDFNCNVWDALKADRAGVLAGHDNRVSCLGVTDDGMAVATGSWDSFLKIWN
Target sequence in this assay (P59768 2-68 partner limits assumed): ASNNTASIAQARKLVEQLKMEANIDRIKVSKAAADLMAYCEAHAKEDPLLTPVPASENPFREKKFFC

[3] = clinical, cited from earlier work; for lowering of plasma LDL: monotherapy

| Compound | IC50 (mature adipocytes) | IC50 (human HM74a [1]) | EC50 (human HM74a [2]) | lowering of plasma LDL [3] | decrease of plasma triglycerides [3] | raising HDL levels [3] |
| --- | --- | --- | --- | --- | --- | --- |
| CCCCCn1c(=O)n2cnnc2c2[nH]c(C(F)(F)F)nc21 [Example 1, 6-pentyl-8-(trifluoromethyl)-6,9-dihydro-5H-[1,2,4]triazolo[3,4-i]purin-5-one] | 100 nM | 20 nM | 61 nM | – | – | – |
| O=C1[C@H](CC[C@H](O)c2ccc(F)cc2)[C@@H](c2ccc(O)cc2)N1c1ccc(F)cc1 [Ezetimibe] | – | – | – | 20% | – | – |
| O=C(O)c1cccnc1 [Nicotinic acid, nicotinic acid] | – | – | – | 16% | 38% | 20-30% |
